From ChEMBL document CHEMBL1201862, “PubChem BioAssay data set” (2004)
Calls of active or inactive are those of the source.

Assays:
[1] = inhibitors of Trypanosoma cruzi host-cell infection, confirmation, beta-gal luminescence, NIH3T3 host cells (AID 2630); format: functional, cell-based; details: Mus musculus
[2] = Luminescence Cell-Based Secondary HTS screen to identify cytotoxic compounds of NIH3T3 cells. [Related pubchem assays: 1885, 1968 ]; format: functional
[3] = cytotoxicity toward NIH3T3 fibroblasts, dose response, counter-screen, cell-based, ATP luminescence, mouse fibroblasts (AID 2010); format: functional;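 note: cells exposed to compound for about 90 hours before reading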
[4] = inhibitors of intracellular T. cruzi replication, confirmation, NIH3T3 host cells, beta-gal luminescence (AID 2044); format: functional, cell-based;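 note: intracellular parasites grown in NIH/3T3 mouse fibroblasts as host cells; luminescent beta-galactosidase reporter signal from transgenic T. cruzi replicating inside host cells; inhibitors lower the luminescence signal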
[5] = Luminescence Cell-Based/Microorganism Confirmation at Dose of Inhibitors of Trypanosoma cruzi Infection. [Related pubchem assays: 1885, 1968 ]; format: functional
[6] = Counterscreen for AddAB inhibitors: absorbance-based bacterial cell-based high throughput dose response assay for inhibitors of bacterial viability. [Related pubchem assays (depositor defined):AID435030, AID449728, AID449731, AID488942, AID488955, AID488956]; format: functional
[7] = biological target: T1, Sentrin-specific protease 8 (Homo sapiens, UniProt Q96LD8); format: functional
T1 sequence (Q96LD8 whole entry): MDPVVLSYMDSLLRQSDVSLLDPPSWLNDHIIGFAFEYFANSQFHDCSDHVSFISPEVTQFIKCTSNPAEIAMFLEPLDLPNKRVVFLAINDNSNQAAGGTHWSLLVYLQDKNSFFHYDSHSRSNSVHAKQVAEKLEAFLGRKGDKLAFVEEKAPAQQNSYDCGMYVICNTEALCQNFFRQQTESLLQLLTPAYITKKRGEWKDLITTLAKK

Exodeoxyribonuclease V = Exodeoxyribonuclease V (Escherichia coli (strain K12), UniProt P04993+P07648+P08394); assay: E. coli RecBCD inhibitors, dose response, counter-screen for AddAB inhibitor project, absorbance, V66 E. coli, mutant T4 phage (AID 492957); format: functional, cell-based, Escherichia coli str. K-12 substr. MG1655
Exodeoxyribonuclease V, sequence (P04993 whole entry): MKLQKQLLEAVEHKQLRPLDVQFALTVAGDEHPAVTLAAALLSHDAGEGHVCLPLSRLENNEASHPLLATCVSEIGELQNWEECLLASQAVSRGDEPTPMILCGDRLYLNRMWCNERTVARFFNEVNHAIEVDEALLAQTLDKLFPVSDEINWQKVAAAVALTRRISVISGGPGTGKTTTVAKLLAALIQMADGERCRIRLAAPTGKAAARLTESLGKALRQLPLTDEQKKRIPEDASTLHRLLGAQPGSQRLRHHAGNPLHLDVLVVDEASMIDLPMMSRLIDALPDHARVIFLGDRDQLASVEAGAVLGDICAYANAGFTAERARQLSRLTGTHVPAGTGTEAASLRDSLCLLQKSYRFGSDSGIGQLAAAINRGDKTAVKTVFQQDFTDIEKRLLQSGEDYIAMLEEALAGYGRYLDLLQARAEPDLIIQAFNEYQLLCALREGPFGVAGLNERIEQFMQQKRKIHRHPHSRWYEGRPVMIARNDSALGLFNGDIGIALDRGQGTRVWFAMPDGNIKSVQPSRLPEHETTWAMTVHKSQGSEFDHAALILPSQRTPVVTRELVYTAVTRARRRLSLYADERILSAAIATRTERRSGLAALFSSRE
Exodeoxyribonuclease V, sequence (P07648 whole entry): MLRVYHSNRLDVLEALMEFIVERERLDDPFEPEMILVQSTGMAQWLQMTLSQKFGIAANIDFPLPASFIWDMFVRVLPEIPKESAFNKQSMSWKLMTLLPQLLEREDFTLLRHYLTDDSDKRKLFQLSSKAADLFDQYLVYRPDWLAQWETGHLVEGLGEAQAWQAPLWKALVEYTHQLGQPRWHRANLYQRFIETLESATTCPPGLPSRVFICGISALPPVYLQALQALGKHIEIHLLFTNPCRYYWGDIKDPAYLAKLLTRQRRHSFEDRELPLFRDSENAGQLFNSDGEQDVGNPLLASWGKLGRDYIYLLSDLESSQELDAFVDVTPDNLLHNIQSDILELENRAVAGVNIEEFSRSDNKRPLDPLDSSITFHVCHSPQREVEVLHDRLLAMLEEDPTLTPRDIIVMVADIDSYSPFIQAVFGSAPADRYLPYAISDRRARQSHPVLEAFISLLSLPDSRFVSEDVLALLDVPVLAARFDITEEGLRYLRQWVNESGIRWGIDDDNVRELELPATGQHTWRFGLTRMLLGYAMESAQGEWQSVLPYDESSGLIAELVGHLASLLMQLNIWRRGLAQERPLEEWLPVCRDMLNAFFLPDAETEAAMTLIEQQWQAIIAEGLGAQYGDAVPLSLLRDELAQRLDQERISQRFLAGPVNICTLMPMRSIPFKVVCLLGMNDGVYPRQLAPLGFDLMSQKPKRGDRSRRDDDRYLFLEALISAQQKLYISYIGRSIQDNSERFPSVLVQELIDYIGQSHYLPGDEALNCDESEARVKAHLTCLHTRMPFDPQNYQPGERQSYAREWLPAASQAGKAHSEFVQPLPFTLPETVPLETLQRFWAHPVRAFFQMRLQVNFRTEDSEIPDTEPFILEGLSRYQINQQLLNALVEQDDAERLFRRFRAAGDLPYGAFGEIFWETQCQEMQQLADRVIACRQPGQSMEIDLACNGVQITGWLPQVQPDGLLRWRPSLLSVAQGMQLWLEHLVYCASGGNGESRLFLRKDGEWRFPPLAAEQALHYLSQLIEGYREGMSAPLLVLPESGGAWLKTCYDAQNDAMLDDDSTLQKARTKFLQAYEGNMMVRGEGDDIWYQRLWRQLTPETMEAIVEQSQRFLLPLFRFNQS
Exodeoxyribonuclease V, sequence (P08394 whole entry): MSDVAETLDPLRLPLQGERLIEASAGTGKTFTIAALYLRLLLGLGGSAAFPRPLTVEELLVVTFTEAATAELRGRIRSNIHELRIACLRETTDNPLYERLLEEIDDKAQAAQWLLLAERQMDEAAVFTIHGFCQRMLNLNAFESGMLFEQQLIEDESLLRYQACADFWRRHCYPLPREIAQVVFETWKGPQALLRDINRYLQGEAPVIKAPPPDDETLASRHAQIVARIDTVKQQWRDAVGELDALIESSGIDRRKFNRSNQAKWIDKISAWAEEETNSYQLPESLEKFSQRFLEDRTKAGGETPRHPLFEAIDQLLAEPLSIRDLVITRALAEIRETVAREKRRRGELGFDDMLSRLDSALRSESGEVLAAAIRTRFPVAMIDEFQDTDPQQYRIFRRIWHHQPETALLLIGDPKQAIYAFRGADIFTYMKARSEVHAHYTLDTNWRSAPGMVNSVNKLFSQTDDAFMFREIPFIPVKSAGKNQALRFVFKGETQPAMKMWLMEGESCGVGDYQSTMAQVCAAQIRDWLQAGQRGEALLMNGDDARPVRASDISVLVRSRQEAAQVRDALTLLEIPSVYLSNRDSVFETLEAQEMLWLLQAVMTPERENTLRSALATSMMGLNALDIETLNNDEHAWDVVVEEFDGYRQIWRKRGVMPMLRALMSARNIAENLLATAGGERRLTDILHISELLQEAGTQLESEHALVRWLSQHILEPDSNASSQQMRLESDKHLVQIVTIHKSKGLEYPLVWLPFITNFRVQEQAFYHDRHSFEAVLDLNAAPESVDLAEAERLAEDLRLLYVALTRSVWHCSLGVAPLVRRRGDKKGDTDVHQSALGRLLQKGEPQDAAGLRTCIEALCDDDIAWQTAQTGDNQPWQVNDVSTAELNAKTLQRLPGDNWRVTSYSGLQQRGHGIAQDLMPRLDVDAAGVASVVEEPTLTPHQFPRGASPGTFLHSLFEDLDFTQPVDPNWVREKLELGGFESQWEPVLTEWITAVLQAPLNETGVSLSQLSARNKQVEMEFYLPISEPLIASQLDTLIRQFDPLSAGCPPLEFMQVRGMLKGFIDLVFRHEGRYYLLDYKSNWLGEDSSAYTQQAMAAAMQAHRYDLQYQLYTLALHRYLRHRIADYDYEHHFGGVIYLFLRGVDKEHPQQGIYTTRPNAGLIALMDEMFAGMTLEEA

[8] = biological target: T1, Sentrin-specific protease 8; format: functional; remark: listed apart in the source
HEK293 = assay: inhibitors of LMP1-driven NF-kB reporter, dose response, cell-based, HEK293, luciferase, cherry-pick (AID 588343); format: functional; details: Homo sapiens
INS1 [9] = assay: beta cell apoptosis inhibitors, cytokine rescue, dose response, luminescence, retest (AID 449756); format: functional, cell-based; details: Rattus norvegicus;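 note: cell death triggered by IL-1 beta plus TNF-alpha plus IFN-gamma mixture; protective hits raise ATP signal compared with cytokine alone wells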
[10] = biological target: T2, Rac GTPase-activating protein 1 (Homo sapiens, UniProt Q9H0H5); assay: MgcRacGAP GTPase-activating activity inhibitors, confirmation, biochemical, ADP Hunter fluorescence, primary and confirmatory (AID 624330); format: functional
T2 sequence (Q9H0H5 whole entry): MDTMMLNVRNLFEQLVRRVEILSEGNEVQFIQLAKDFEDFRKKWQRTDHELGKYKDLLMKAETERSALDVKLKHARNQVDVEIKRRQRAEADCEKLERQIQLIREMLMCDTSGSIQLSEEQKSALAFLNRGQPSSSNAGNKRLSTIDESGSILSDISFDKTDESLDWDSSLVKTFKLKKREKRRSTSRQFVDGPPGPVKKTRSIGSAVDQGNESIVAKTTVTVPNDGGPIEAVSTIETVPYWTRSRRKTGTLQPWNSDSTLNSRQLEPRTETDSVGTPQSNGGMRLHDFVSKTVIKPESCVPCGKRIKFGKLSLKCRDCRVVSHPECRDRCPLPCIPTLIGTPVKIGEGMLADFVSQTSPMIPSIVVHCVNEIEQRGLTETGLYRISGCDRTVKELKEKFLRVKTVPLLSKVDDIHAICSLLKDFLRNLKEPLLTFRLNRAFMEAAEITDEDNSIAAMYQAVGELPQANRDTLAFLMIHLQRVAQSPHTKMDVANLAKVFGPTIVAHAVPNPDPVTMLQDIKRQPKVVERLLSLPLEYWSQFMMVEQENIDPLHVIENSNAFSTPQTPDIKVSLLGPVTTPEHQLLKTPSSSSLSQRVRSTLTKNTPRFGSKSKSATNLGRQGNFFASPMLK

[11] = biological target: G-protein coupled receptor 55 (Homo sapiens, UniProt Q9Y2T6); assay: GPR55 antagonists blocking LPI-driven arrestin recruitment, primary screen, imaging, U2OS, beta-arrestin-GFP, LPI agonist (AID 2013); format: functional;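 note: antagonist potency measured as reduced agonist-driven arrestin aggregation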
G-protein coupled receptor 55, sequence (Q9Y2T6 whole entry): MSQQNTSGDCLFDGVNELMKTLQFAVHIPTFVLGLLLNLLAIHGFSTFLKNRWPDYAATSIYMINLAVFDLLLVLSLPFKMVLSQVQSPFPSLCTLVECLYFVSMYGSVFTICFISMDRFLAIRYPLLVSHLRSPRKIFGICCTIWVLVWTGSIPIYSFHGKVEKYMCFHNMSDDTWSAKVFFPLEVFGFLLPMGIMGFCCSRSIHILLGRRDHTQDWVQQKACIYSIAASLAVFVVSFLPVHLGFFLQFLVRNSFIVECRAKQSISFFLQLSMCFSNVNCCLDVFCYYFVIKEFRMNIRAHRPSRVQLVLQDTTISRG

[12] = biological target: Eukaryotic translation initiation factor 4E (Mus musculus, UniProt P63073); assay: eIF4E–eIF4G protein interaction inhibitors, dose response, biochemical, TR-FRET (AID 855); format: functional;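 note: potency for disrupting eIF4E binding to eIF4GI seen as loss of FRET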
Eukaryotic translation initiation factor 4E, sequence (P63073 whole entry): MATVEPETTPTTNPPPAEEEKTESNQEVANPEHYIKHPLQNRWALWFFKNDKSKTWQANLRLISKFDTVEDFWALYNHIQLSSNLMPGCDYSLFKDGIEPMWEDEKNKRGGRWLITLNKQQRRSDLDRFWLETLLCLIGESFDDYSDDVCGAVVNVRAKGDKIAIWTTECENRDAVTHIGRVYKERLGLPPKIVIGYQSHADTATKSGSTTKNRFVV

SUMO-activating enzyme [13] = biological target: T3, SUMO-activating enzyme (Homo sapiens, UniProt Q9UBT2); assay: inhibitors of in vitro SUMOylation cascade, primary screen, biochemical, HTRF, uHTS (AID 2006); format: protein-complex assay
T3 sequence (Q9UBE0 whole entry): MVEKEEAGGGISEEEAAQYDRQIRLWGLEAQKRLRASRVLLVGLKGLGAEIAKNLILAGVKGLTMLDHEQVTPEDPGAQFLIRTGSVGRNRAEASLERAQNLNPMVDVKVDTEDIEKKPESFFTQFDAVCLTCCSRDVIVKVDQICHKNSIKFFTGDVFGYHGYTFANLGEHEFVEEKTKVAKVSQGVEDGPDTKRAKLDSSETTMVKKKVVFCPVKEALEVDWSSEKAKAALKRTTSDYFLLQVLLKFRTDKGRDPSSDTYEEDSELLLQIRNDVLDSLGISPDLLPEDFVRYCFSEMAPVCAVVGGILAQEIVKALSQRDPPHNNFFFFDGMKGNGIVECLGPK
T3 sequence (Q9UBT2 whole entry): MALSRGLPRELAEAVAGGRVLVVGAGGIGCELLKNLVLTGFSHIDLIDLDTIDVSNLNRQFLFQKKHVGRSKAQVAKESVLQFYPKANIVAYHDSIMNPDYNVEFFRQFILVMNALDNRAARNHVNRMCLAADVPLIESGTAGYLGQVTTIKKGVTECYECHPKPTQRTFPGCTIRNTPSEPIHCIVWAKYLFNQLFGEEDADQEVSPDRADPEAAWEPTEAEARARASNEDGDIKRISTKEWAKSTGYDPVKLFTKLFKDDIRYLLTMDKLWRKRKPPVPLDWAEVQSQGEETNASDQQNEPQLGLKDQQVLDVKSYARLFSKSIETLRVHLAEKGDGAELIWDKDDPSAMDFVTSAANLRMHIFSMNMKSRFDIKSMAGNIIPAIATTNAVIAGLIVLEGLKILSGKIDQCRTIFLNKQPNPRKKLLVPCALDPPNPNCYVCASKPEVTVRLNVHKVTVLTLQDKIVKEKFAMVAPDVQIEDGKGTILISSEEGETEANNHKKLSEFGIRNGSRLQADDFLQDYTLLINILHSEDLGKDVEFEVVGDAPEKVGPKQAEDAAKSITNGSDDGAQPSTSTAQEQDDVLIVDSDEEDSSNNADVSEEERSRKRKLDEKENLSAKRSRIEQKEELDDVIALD

SUMO-activating enzyme [14] = biological target: T3, SUMO-activating enzyme; assay: SUMOylation inhibitor hit validation, confirmation, SUMOylation inhibitor project, biochemical, AlphaScreen (AID 2018); format: functional
INS1 [15] = assay: protection of INS-1E cells from cytokine death, dose response, ATP luminescence, dry powder (AID 488844); format: functional, cell-based; details: Rattus norvegicus
[16] = inhibitors of firefly luciferase expression or activity, dose response, H4 neuroglioma cells, luminescence (AID 1990); format: functional, cell-based
Protein RecA = biological target: T4, Protein RecA (Mycobacterium tuberculosis, UniProt P9WHJ3); assay: Fluorescence Cell-Free Homogeneous Dose Retest to Identify Inhibitors of RecA-Intein Splicing Activity. [Related pubchem assays (depositor defined):AID2097, AID2223, AID489010, AID492950]; format: functional
T4 sequence (P9WHJ3 whole entry): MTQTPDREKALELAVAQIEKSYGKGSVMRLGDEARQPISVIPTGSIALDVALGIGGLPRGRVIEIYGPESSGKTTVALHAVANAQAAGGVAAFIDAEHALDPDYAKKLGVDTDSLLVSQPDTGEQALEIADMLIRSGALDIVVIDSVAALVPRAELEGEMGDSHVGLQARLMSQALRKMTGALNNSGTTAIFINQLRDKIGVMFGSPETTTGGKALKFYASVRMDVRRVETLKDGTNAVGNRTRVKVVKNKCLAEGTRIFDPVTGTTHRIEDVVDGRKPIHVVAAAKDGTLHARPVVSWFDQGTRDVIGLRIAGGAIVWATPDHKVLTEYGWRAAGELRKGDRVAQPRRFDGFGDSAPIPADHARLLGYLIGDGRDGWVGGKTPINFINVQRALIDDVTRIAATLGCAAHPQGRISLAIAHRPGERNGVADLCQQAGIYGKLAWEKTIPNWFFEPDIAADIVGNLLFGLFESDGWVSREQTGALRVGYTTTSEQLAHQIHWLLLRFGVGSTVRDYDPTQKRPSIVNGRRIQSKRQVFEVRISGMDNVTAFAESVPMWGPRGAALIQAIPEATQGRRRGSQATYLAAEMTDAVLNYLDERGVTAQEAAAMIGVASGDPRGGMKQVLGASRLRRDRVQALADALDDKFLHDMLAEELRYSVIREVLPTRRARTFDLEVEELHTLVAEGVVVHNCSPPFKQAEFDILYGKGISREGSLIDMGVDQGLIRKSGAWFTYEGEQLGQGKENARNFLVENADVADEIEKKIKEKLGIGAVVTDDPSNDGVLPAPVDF

Hexokinase HKDC1 = biological target: T5, Hexokinase HKDC1 (Homo sapiens, UniProt Q2TB90); assay: HKDC1 hexokinase inhibitors, dose response, biochemical, W721R variant (AID 504729); format: functional
T5 sequence (Q2TB90 whole entry): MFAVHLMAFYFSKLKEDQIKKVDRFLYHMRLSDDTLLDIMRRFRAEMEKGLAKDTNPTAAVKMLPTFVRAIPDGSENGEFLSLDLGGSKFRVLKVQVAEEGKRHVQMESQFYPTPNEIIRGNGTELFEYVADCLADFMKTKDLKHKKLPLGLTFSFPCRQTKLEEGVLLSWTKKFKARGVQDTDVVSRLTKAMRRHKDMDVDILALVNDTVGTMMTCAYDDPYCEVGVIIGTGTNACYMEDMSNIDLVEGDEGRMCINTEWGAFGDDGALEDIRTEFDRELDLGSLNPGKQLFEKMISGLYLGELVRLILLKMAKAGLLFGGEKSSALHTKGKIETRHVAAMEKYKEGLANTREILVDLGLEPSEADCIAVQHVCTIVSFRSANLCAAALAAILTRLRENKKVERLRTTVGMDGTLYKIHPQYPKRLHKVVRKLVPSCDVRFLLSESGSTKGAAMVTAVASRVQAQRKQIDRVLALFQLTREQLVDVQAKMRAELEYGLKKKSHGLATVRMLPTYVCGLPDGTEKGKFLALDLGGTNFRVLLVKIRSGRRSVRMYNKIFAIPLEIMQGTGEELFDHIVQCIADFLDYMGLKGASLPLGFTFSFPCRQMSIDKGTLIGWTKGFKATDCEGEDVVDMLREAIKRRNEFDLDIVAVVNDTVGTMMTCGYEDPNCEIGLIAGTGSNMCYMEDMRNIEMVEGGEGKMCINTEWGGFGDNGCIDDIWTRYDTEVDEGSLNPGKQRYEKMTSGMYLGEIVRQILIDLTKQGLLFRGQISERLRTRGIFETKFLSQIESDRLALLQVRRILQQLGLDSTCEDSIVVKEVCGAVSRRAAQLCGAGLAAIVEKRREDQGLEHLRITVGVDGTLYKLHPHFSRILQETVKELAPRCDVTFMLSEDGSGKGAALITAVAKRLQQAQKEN

[17] = biological target: T6, Replicative DNA helicase DnaB (Mycobacterium tuberculosis, UniProt P9WMR3); assay: DnaB intein splicing inhibitors, dose response, biochemical, cell-free fluorescence (AID 449749); format: functional
T6 sequence (P9WMR3 whole entry): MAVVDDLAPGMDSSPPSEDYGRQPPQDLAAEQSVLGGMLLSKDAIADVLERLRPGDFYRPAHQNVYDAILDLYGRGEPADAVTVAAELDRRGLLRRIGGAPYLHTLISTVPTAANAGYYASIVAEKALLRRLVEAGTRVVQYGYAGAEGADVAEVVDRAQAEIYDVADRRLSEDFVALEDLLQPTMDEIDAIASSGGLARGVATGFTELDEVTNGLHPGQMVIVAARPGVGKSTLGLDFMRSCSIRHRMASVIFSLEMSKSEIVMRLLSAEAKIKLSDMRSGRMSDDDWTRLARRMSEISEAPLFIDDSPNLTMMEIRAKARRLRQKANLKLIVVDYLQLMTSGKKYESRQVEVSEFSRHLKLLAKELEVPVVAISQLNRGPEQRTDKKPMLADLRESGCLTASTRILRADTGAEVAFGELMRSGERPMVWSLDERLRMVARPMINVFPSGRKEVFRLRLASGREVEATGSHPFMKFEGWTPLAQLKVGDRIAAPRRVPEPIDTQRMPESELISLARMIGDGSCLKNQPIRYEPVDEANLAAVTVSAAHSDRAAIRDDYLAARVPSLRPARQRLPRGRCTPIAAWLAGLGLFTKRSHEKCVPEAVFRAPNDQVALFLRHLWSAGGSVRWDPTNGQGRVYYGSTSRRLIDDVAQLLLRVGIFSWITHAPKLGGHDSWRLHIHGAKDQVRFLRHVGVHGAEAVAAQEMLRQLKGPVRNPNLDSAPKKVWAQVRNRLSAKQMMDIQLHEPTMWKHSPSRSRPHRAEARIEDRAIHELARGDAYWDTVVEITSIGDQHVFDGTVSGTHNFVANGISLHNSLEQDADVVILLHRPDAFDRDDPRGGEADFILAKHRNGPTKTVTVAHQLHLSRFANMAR

[18] = inhibitors of SNCA 5'UTR-driven reporter translation, confirmation, H4 neuroglioma cells, luminescence (AID 1988); format: functional, cell-based
[19] = Luminescence Cell-Based Dose Response HTS to Identify Inhibitors of 5'UTR Stem-Loop Driven Prion Protein mRNA Translation in H4 Neuroglioblastoma Cells. [Related pubchem assays: 1827 (Project Summary), 1813 (Primary HTS)]; format: functional

SMILES: CSc1ccc(CN2CCCC(CNC(=O)c3ccc(F)cc3)C2)cc1 (configuration not stated)
- EC50 (cells): 0.12 µM (active)
- EC50 [1]: 7.17 µM (active)
- EC50 [2]: > 195 µM (not active)
- EC50 [3]: > 30 µM (not active)
- EC50 [4]: < 0.1 µM (active)
- EC50 [5]: 7.17 µM (active)

SMILES: O=C(CCN1CCN(c2ccccc2)CC1)N/N=C/c1ccc([N+](=O)[O-])o1
- EC50 (cells): 0.037 µM (active)
- IC50 [6]: > 39.5 µM (inactive)
- IC50 [7]: 96.9 µM (inactive)
- EC50 [3]: > 60 µM (not active)
- IC50 (Exodeoxyribonuclease V): > 119 µM (inactive)
- IC50 [8]: 40 µM (active)
- EC50 [4]: < 0.1 µM (active)

SMILES: CCC(=O)NC(c1ccc(C)cc1)c1cc(Cl)c2cccnc2c1O (configuration not stated)
- AC50 (HEK293): 12.9 µM (active)
- AC50 (INS1 [9]): 1.65 µM (active)
- IC50 [6]: > 119 µM (inactive)
- IC50 (Exodeoxyribonuclease V): > 119 µM (inactive)

SMILES: O=C(O)c1cccc(N2C(=O)/C(=C/c3ccc(SCc4ccc(Cl)cc4)o3)SC2=S)c1
- IC50 [10]: 132 µM (active)
- IC50 [11]: 4.43 µM (active)
- IC50 [12]: 29.9 µM (active)
- IC50 (SUMO-activating enzyme [13]): 14.6 µM (active)
- IC50 (SUMO-activating enzyme [14]): 1.39 µM (active)

SMILES: O=C(Cc1cn(Cc2cccc(Cl)c2)c2ccccc12)N1CCCCCC1
- EC50 [1]: 3.09 µM (active)
- EC50 [2]: > 195 µM (not active)
- EC50 [3]: > 60 µM (not active)
- EC50 [4]: 1.75 µM (active)
- EC50 [5]: 3.09 µM (active)

SMILES: C[C@@H]1CN([C@@H](C)CO)C(=O)c2cccc(NC(=O)Nc3ccccc3)c2O[C@H]1CN(C)S(=O)(=O)c1ccc(Cl)cc1
- AC50 (INS1 [15]): 116 µM (active)

SMILES: CCCCC[C@H](O)/C=C/[C@@H]1[C@@H](C/C=C\CCCC(=O)OC)[C@@H](O)C[C@H]1O
- EC50 [16]: > 120 µM (not active)
- EC50 (Protein RecA): 12.2 µM (active)
- IC50 (Hexokinase HKDC1): 9.12 µM (active)
- AC50 [17]: 16.1 µM (active)
- IC50 [12]: 8.7 µM (active)
- IC50 (SUMO-activating enzyme [13]): 18.4 µM (active)
- EC50 [18]: > 120 µM (not active)
- EC50 [19]: > 120 µM (not active)
- IC50 (SUMO-activating enzyme [14]): 10.5 µM (active)
